Experimental findings from patent US10300058B2, “Tyrosine kinase inhibitor and uses thereof” (Xuanzhu Pharma Co., Ltd., priority 2014, dated 2019) are described below.

For data set [1], the system named is H1975 human non-small cell lung cancer xenograft. Description: Pharmacodynamics in vivo, H1975 xenograft tumor-bearing nude mice. Further details: species or system BALB/c nude mouse. Conditions: PO; for RTV (relative tumor volume) / TV (tumor volume) / Body weight After administration / Body weight Before administration: mean ± standard error. The text has this:
Genus: Rodent, Line: BALB/c nude, age: 6-8 weeks, gender: female, body weight: 18-22 g. Provider of experimental animals: Beijing Ankaiyibo Biological Technology Co. Ltd., Production license No. SCXK(Jing) 2012-0009. Quality Certificate No. 11402400000256 […] The tumor cells in logarithmic growth phase were used in tumor inoculation in vivo. […] When the tumor grew into a volume of about 100 mm^3, the animals were grouped and administered, 8 mice per group. […] Test compound solutions were prepared immediately before administration every day. [table] Vernier caliper was used to measure the volume of tumor twice a week. The long diameter and short diameter of tumor were measured. The volume was calculated by the formula: volume=0.5×long diameter×short diameter^2. According to the measurement results, relative tumor volume (RTV) and relative tumor volume increasing rate (T/C) were calculated. RTV=Vt/V0, wherein Vt is the average value of tumor volume on day t after grouping and administration, V0 is the average value of tumor volume at the day when grouping. T/C=TRTV/CRTV×100%, wherein TRTV is the RTV in the treatment group, and CRTV is the RTV in the solvent control group. […] One-Way ANOVA test was carried out by SPSS17.0 statistic software. Tumor volume was analysed in statistics among groups. P<0.05 is indicative of significant difference.

The target of another data set is EGFR (d746-750)-T790M (Homo sapiens (Human), UniProt P00533, DEL746-750/T790M). As to the kind of experiment: Mobility Shift Assay, in vitro enzyme-inhibiting activity, EGFR (d746-750)-T790M. The data set is classed as biochemical. Conditions: Table 8; Km ATP; read-out: IC50 EGFR (d746-750)-790M. On the procedure: 1. Preparation of Reagents
EGFR (d746-750)-T790M, sequence (P00533 other isoform, or with tags, fused parts or gaps T790M/del 1-668/del 746-750 limits assumed): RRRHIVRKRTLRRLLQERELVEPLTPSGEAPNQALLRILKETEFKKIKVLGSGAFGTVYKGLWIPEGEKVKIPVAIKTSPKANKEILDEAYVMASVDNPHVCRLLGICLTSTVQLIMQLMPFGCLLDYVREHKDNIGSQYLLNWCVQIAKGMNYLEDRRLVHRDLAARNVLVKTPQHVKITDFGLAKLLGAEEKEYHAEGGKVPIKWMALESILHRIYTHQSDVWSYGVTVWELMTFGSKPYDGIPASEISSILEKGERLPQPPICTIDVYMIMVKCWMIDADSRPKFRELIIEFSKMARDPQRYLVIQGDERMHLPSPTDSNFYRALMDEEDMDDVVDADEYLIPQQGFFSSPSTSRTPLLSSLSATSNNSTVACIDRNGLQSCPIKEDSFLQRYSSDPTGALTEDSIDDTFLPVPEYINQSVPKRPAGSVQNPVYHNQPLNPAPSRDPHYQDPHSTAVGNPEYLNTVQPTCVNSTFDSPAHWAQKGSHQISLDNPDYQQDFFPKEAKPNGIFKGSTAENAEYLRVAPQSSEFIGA
2. Preparation of a Compound Solution
(1) To the second well of a 96-well plate, 5 μL 10 mM compound (dissolved in DMSO) was added, and 95 μL 100% DMSO was added to prepare 100 μL 0.5 mM compound.
(2) To other wells, 60 μL 100% DMSO was added. 20 μL compound from the second well was added to the third well, and 4-fold dilution was further performed to get 10 diluted concentrations.
(3) To the first well and the twelfth well of the 96-well plate, 100 μL 100% DMSO was separately added, and the two wells were used as control wells.
(4) 10 μL from each well of the 96-well plate was added to another 96-well plate, and 90 μL 1-fold kinase buffer was added.
(5) 5 μL from the 96-well plate was added to another 384-well plate, for example, transferred from A1 well of the 96-well plate to A1 and A2 wells of the 384-well plate, and transferred from A2 well of the 96-well plate to A3 and A4 wells of the 384-well plate, and so on.
To 384-well plate, 10 μL 2.5-fold enzyme solution was added, and incubated at room temperature for 10 min.
(5) Kinase reaction and stop
After incubation at 28° C. for a period of time (depending on kinase), 25 μL stop solution was added.
4. Data on percent conversion was read by Caliper.
(1) Data on enzyme activity was obtained by Caliper program;
(2) Inhibition rate of enzyme activity was calculated from the data on enzyme activity by the following formula: Inhibition rate(%)=(maximal value−the measured value of a test compound)/(maximal value-minimal value)×100,
wherein, the maximal value represents the measured value of DMSO control; and the minimal value represents the measured value of blank control.
(3) Calculation of IC50 value by XLFit excel.

Where [2] appears, read: Table 18, 10 mg/kg, QD × 18, 23 days after inoculation.
[3] abbreviates: Table 18, 30 mg/kg, QD × 18, 23 days after inoculation.
The mark [4] stands for this setting: Table 17, 100 mg/kg, 19 days after inoculation.

With `C=CC(=O)Nc1cccc(Nc2nc(Nc3ccc(C4CCN(C(C)=O)CC4)cc3OC)ncc2C(F)(F)F)c1` [Compound 2, N-(3-((2-((4-(1-acetylpiperidin-4-yl)-2-methoxyphenyl)amino)-5-(trifluoromethyl)pyrimidin-4-yl)amino)phenyl)acrylamide], in data set [1] (Table 18, 10 mg/kg, QD × 18), the “T/C (relative tumor volume increasing rate)” value stood at 56.1%, the “TGI (tumor growth-inhibiting rate)” value stood at 43.9%, the “Body weight After administration” value is 22.6 ± 0.3 g and the “Body weight Before administration” value is recorded as 21.1 ± 0.4 g. In data set [1] (setting [2]), the “RTV (relative tumor volume)” value amounted to 630 ± 105% and the “TV (tumor volume)” value stood at 588 ± 81 mm^3. Besides, in data set [1] (Table 18, 30 mg/kg, QD × 18), the “T/C (relative tumor volume increasing rate)” value was determined as 45.7%, the “TGI (tumor growth-inhibiting rate)” value is reported as 54.3%, the “Body weight After administration” value is reported as 22.6 ± 0.5 g and the “Body weight Before administration” value is reported as 21.6 ± 0.4 g. In data set [1] (setting [3]), the “RTV (relative tumor volume)” value was determined as 513 ± 54% and the “TV (tumor volume)” value was determined as 489 ± 49 mm^3.
The IC50 is the concentration that gives 50% inhibition. For `C=CC(=O)Nc1cccc(Nc2nc(Nc3ccc(C4CCN(S(C)(=O)=O)CC4)cc3OC)ncc2C(F)(F)F)c1` [Compound 27, N-(3-((2-((2-methoxy-4-(1-(methylsulfonyl)piperidin-4-yl)phenyl)amino)-5-(trifluoromethyl)pyrimidin-4-yl)amino)phenyl)acrylamide], the IC50 at EGFR (d746-750)-T790M was 3.6 nM.
Turning to `C=CC(=O)Nc1cccc(Nc2nc(Nc3ccc(N4CCC(N5CCOCC5)CC4)cc3OC)ncc2C(F)(F)F)c1` [Compound 28, N-(3-((2-((2-methoxy-4-(4-morpholinopiperidin-1-yl)phenyl)amino)-5-(trifluoromethyl)pyrimidin-4-yl)amino)phenyl)acrylamide], the IC50 on EGFR (d746-750)-T790M is 0.8 nM. Besides, in data set [1] (Table 17, 100 mg/kg), the “T/C (relative tumor volume increasing rate)” value amounted to 4.7%, the “TGI (tumor growth-inhibiting rate)” value came out at 95.3%, the “Body weight After administration” value came out at 21.5 ± 0.3 g and the “Body weight Before administration” value amounted to 20.8 ± 0.4 g. Also, in data set [1] (setting [4]), the “RTV (relative tumor volume)” value is on record as 46 ± 6% and the “TV (tumor volume)” value amounted to 53 ± 7 mm^3.
